Measurements published in patent US20100160445A1, “Synergistic Mixtures of OPP and DGH” (priority 2002, published 2010).
Structures can show the parent of a compound that is named as a salt.

System: wild strain bacteria isolated from previously contaminated systems
Experiment: In-Can Preservation Test of paint samples; on Microbial growth, 1st Inoculation, 1st sub-column: key: 4 = Heavy Microbial Growth; 3 = Moderate Microbial Growth; 2 = Slight Microbial Growth; 1 = Trace Microbial Growth; 0 = No Microbial Growth; on Microbial growth, 1st Inoculation, 2nd sub-column: key: 4 = Heavy Microbial Growth; 3 = Moderate Microbial Growth; 2 = Slight Microbial Growth; 1 = Trace Microbial Growth; 0 = No Microbial Growth; on Microbial growth, 2nd Inoculation, 1st sub-column: key: 4 = Heavy Microbial Growth; 3 = Moderate Microbial Growth; 2 = Slight Microbial Growth; 1 = Trace Microbial Growth; 0 = No Microbial Growth; on Microbial growth, 2nd Inoculation, 2nd sub-column: key: 4 = Heavy Microbial Growth; 3 = Moderate Microbial Growth; 2 = Slight Microbial Growth; 1 = Trace Microbial Growth; 0 = No Microbial Growth
Assay type: cell-based
Conditions: for Effective Preservative (ppm): two inoculation challenge
Description: Preservation Testing was performed on the three paint samples: Acrylic Flat, Acrylic and Vinyl Acrylic. Each sample was treated with various levels OPP, DGH individually and a mixture of OPP and DGH. All samples were then inoculated with wild strain bacteria isolated from previously contaminated systems. Following the initial inoculation, the samples were reinoculated on day 7. This testing scenario best simulates what happens in a “real world” situation. […]

[1] = Table 2 paint (Acrylic Flat / Vinyl Acrylic Flat), 250 ppm
[2] = Table 2 paint (Acrylic Flat / Vinyl Acrylic Flat), 500 ppm
[3] = Table 2 paint (Acrylic Flat / Vinyl Acrylic Flat), 750 ppm
[4] = Table 2 paint (Acrylic Flat / Vinyl Acrylic Flat), 1000 ppm
[5] = Table 2 paint (Acrylic Flat / Vinyl Acrylic Flat), 1500 ppm
[6] = Table 2 paint (Acrylic Flat / Vinyl Acrylic Flat), 2000 ppm
[7] = Table 3 paint (Vinyl Acrylic Flat / Acrylic Flat), 250 ppm
[8] = Table 3 paint (Vinyl Acrylic Flat / Acrylic Flat), 500 ppm
[9] = Table 3 paint (Vinyl Acrylic Flat / Acrylic Flat), 750 ppm
[10] = Table 3 paint (Vinyl Acrylic Flat / Acrylic Flat), 1000 ppm
[11] = Table 3 paint (Vinyl Acrylic Flat / Acrylic Flat), 1500 ppm
[12] = Table 3 paint (Vinyl Acrylic Flat / Acrylic Flat), 2000 ppm

## CCCCCCCCCCCCNC(=N)N [DGH, Dodecylguanidine Hydrochloride]
Acrylic Flat paint
  Effective Preservative (ppm): 1500 ppm
Acrylic paint, 250 ppm
  Microbial growth, 1st Inoculation, 1st sub-column: 3
  Microbial growth, 1st Inoculation, 2nd sub-column: 3
  Microbial growth, 2nd Inoculation, 1st sub-column: 3
  Microbial growth, 2nd Inoculation, 2nd sub-column: 3
Acrylic paint, 500 ppm
  Microbial growth, 1st Inoculation, 1st sub-column: 3
  Microbial growth, 1st Inoculation, 2nd sub-column: 3
  Microbial growth, 2nd Inoculation, 1st sub-column: 2
  Microbial growth, 2nd Inoculation, 2nd sub-column: 3
Acrylic paint, 750 ppm
  Microbial growth, 1st Inoculation, 1st sub-column: 3
  Microbial growth, 1st Inoculation, 2nd sub-column: 2
  Microbial growth, 2nd Inoculation, 1st sub-column: 2
  Microbial growth, 2nd Inoculation, 2nd sub-column: 2
Acrylic paint, 1000 ppm
  Microbial growth, 1st Inoculation, 1st sub-column: 3
  Microbial growth, 1st Inoculation, 2nd sub-column: 2
  Microbial growth, 2nd Inoculation, 1st sub-column: 1
  Microbial growth, 2nd Inoculation, 2nd sub-column: 1
Acrylic paint, 1500 ppm
  Microbial growth, 1st Inoculation, 1st sub-column: 3
  Microbial growth, 1st Inoculation, 2nd sub-column: 0
  Microbial growth, 2nd Inoculation, 1st sub-column: 1
  Microbial growth, 2nd Inoculation, 2nd sub-column: 0
Acrylic paint, 2000 ppm
  Microbial growth, 1st Inoculation, 1st sub-column: 3
  Microbial growth, 1st Inoculation, 2nd sub-column: 0
  Microbial growth, 2nd Inoculation, 1st sub-column: 1
  Microbial growth, 2nd Inoculation, 2nd sub-column: 0
Acrylic paint
  Effective Preservative (ppm): 2000 ppm
[1]
  Microbial growth, 1st Inoculation, 1st sub-column: 3
  Microbial growth, 1st Inoculation, 2nd sub-column: 2
  Microbial growth, 2nd Inoculation, 1st sub-column: 3
  Microbial growth, 2nd Inoculation, 2nd sub-column: 2
[2]
  Microbial growth, 1st Inoculation, 1st sub-column: 3
  Microbial growth, 1st Inoculation, 2nd sub-column: 2
  Microbial growth, 2nd Inoculation, 1st sub-column: 2
  Microbial growth, 2nd Inoculation, 2nd sub-column: 2
[3]
  Microbial growth, 1st Inoculation, 1st sub-column: 3
  Microbial growth, 1st Inoculation, 2nd sub-column: 2
  Microbial growth, 2nd Inoculation, 1st sub-column: 2
  Microbial growth, 2nd Inoculation, 2nd sub-column: 2
[4]
  Microbial growth, 1st Inoculation, 1st sub-column: 3
  Microbial growth, 1st Inoculation, 2nd sub-column: 2
  Microbial growth, 2nd Inoculation, 1st sub-column: 3
  Microbial growth, 2nd Inoculation, 2nd sub-column: 2
[5]
  Microbial growth, 1st Inoculation, 1st sub-column: 3
  Microbial growth, 1st Inoculation, 2nd sub-column: 2
  Microbial growth, 2nd Inoculation, 1st sub-column: 3
  Microbial growth, 2nd Inoculation, 2nd sub-column: 1
[6]
  Microbial growth, 1st Inoculation, 1st sub-column: 3
  Microbial growth, 1st Inoculation, 2nd sub-column: 0
  Microbial growth, 2nd Inoculation, 1st sub-column: 1
  Microbial growth, 2nd Inoculation, 2nd sub-column: 0
[7]
  Microbial growth, 1st Inoculation, 1st sub-column: 3
  Microbial growth, 1st Inoculation, 2nd sub-column: 2
  Microbial growth, 2nd Inoculation, 1st sub-column: 3
  Microbial growth, 2nd Inoculation, 2nd sub-column: 2
[8]
  Microbial growth, 1st Inoculation, 1st sub-column: 2
  Microbial growth, 1st Inoculation, 2nd sub-column: 2
  Microbial growth, 2nd Inoculation, 1st sub-column: 3
  Microbial growth, 2nd Inoculation, 2nd sub-column: 1
[9]
  Microbial growth, 1st Inoculation, 1st sub-column: 2
  Microbial growth, 1st Inoculation, 2nd sub-column: 2
  Microbial growth, 2nd Inoculation, 1st sub-column: 3
  Microbial growth, 2nd Inoculation, 2nd sub-column: 1
[10]
  Microbial growth, 1st Inoculation, 1st sub-column: 2
  Microbial growth, 1st Inoculation, 2nd sub-column: 2
  Microbial growth, 2nd Inoculation, 1st sub-column: 3
  Microbial growth, 2nd Inoculation, 2nd sub-column: 1
[11]
  Microbial growth, 1st Inoculation, 1st sub-column: 2
  Microbial growth, 1st Inoculation, 2nd sub-column: 2
  Microbial growth, 2nd Inoculation, 1st sub-column: 2
  Microbial growth, 2nd Inoculation, 2nd sub-column: 2
[12]
  Microbial growth, 1st Inoculation, 1st sub-column: 2
  Microbial growth, 1st Inoculation, 2nd sub-column: 2
  Microbial growth, 2nd Inoculation, 1st sub-column: 2
  Microbial growth, 2nd Inoculation, 2nd sub-column: 2
Vinyl Acrylic Flat paint
  Effective Preservative (ppm): >2000 ppm
